Test results taken from US20190300842A1, “SYSTEMS AND METHODS FOR CONTINUOUSLY CULTURING MICROALGAE IN MIXOTROPHIC CONDITIONS” (HELIAE DEVELOPMENT, LLC, priority 2016, published 2019).
Read-outs that look alike come from different tables or passages of the source.

Tested on: bacterial growth
Experimental: An experiment was conducted to compare a semi-continuous and continuous auxostat mixotrophic microalgae operation in an open outdoor bioreactor utilizing recycled media. The outdoor bioreactor system, protocols, and type of microalgae (Chlorella) was the same as described in Example 7. Different treatments were applied to the centrate resulting from membrane filter separation. The continuous media was treated with 14 g/L acetic acid. […] The media used for semi-continuous after each partial harvest was treated with 100% filtered ozone and stabilized by refrigeration at 4° C. After the first harvest, continuous treatment started in two of the four reactors. In the time between the continuous switch and the first partial harvest, non-recycled continuous feed media was used to maintain pH on the continuous cultures through the pH auxostat.

## CC(=O)O [Acetic acid, acetic acid]
Acetic acid 5 g/L, 7 days
  bacterial growth in centrate (quantity not named in Table 4): 0.00
Acetic acid 5 g/L, 14 days
  bacterial growth in centrate (quantity not named in Table 4): 0.00
Acetic acid 5 g/L, 21 days
  bacterial growth in centrate (quantity not named in Table 4): 0.00
Acetic acid 10 g/L, 7 days
  bacterial growth in centrate (quantity not named in Table 4): 0.00
Acetic acid 10 g/L, 14 days
  bacterial growth in centrate (quantity not named in Table 4): 0.00
Acetic acid 10 g/L, 21 days
  bacterial growth in centrate (quantity not named in Table 4): 0.00
Acetic acid 15 g/L, 7 days
  bacterial growth in centrate (quantity not named in Table 4): 0.00
Acetic acid 15 g/L, 14 days
  bacterial growth in centrate (quantity not named in Table 4): 0.00
Acetic acid 15 g/L, 21 days
  bacterial growth in centrate (quantity not named in Table 4): 0.00
Addition of at least 5 g/L acetic acid
  period for which the centrate could be stabilized: > 21 days
Treatments of 5 g/L acetic acid and above, up to 21 days
  bacterial growth: No bacterial growth was observed
